Results on three compounds are retold here after patent US10100061B2, “Oxazepine compound and agricultural/horticultural insecticide containing said compound as active ingredient, and method for using the same” (NIHON NOHYAKU CO., LTD., priority 2014, dated 2018).

Data set [1] relates to Green Peach Aphid (Myzus Persicae). As to the kind of experiment: Test of preventive value against green peach aphid (Test Example 1). The note with it: 500 ppm, sprayed over stems and leaves of potted Chinese cabbages, sixth day after spraying. The format is in vivo.
The subject of data set [2] is Small Brown Planthopper (Laodelphax Striatellus). As to the kind of experiment: Test of insecticidal efficacy against small brown planthopper (Test Example 2). It is filed as in vivo. The note with it: 500 ppm, rice plants soaked 30 seconds, third-instar larvae, eight days after inoculation; criteria same as in Test Example 1. The text has this: Test of Insecticidal Efficacy Against Small Brown Planthopper (Laodelphax Striatellus)

Consider `N#CCN1C(=O)c2nn(-c3cccnc3)cc2Oc2cc(F)ccc21` [Compound No. 1-13, 2-(6-fluoro-10-oxo-2-(pyridine-3-yl)-2H-benzo [b]pyrazolo [3,4-f][1,4]oxazepine-9 (10H)-yl) acetonitrile], for which, in data set [1], the “Preventive value, judgment” value is “A to D”. Moreover, in data set [2], the “Corrected insect mortality, judgment” value was “A to D”.

Regarding `CN1C(=S)c2nn(-c3cccnc3)cc2Oc2ccccc21` [Compound No. 2-2, 9-methyl-2-(pyridine-3-yl)-2H-benzo [b]pyrazolo [3,4-f][1,4]oxazepine-10 (9H)-thione], the “Preventive value, judgment” value in data set [1] is listed as “A to D”. Also, in data set [2], the “Corrected insect mortality, judgment” value was “A to D”.

For the compound `Fc1ccc2c(c1)NCc1nn(-c3cccnc3)cc1O2` [Compound No. 3-6, 7-fluoro-2-(pyridine-3-yl)-9,10-dihydro-2H-benzo [b]pyrazolo [3,4-f][1,4]oxazepine], in data set [1], the “Preventive value, judgment” value is given as “A to D”. In addition, the “Corrected insect mortality, judgment” value in data set [2] is “A to D”.
